Here are results for 13 molecules from patent US20230416205A1, “COMPOUNDS, COMPOSITIONS, AND METHODS” (Denali Therapeutics Inc, priority 2020, published 2023).

One experiment relates to NLRP3. The experiment in a line: IL-1β secretion assay in PMA-differentiated, LPS/nigericin-stimulated THP-1 cells (384-well, ELISA read-out). Format: cell-based, human. As to conditions: Homo sapiens, THP-1. An outline of the steps: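 Secreted IL-1β quantified by capture ELISA from supernatants of PMA-differentiated THP-1 cells (30K per well). Sequence: LPS 25 ng/mL priming 2 h, compound 1 h, nigericin 2 h; dose-responses normalized between high (LPS plus 5 μM nigericin) and low (LPS alone) controls.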
On the technique in general: In an ELISA, binding on a coated surface is turned into a signal by an enzyme label.
The IC50 is the concentration at which inhibition is half-maximal. In the case of `O=C(CN1CC2(CC2)c2cc(Br)ccc2C1=O)NC1CN2CCC1CC2` (stereo not shown) [Example 372, N-(1-azabicyclo[2.2.2]octan-3-yl)-2-(6-bromo-1-oxospiro[3H-isoquinoline-4,1′-cyclopropane]-2-yl)acetamide], the 50% inhibitory concentration (IC50) came to 22.2 µM.

The same experiment, now with this note: Homo sapiens, THP-1, Table 4; IL-1β secretion, LPS/nigericin-stimulated THP-1 cells; read-out: IC50.
Regarding `O=C(CN1CC2(CC2)c2cc(Br)ccc2C1=O)Nc1nccc2nccn12` [Example 363, 2-(6-bromo-1-oxospiro[3H-isoquinoline-4,1′-cyclopropane]-2-yl)-N-imidazo[1,2-c]pyrimidin-5-ylacetamide], the 50% inhibitory concentration (IC50) was found to be 6.58 µM.

With `O=C(CN1CC2(CC2)c2cc(Br)ccc2C1=O)Nc1ncc(N2CCCC2)cn1` [Example 364, 2-(6-bromo-1-oxospiro[3H-isoquinoline-4,1′-cyclopropane]-2-yl)-N-(5-pyrrolidin-1-ylpyrimidin-2-yl)acetamide], the half-inhibitory concentration (IC50) was 2.56 µM.

As to `O=C(CN1CC2(CC2)c2cc(Br)ccc2C1=O)N[C@@H]1CCCN(C2COC2)C1` [Example 365, 2-(6-bromo-1-oxospiro[3H-isoquinoline-4,1′-cyclopropane]-2-yl)-N-[(3R)-1-(oxetan-3-yl)piperidin-3-yl]acetamide], the half-inhibitory concentration (IC50) was 2.14 µM.

`O=C(CN1CC2(CC2)c2cc(Br)ccc2C1=O)NC1CCN(CCC(F)(F)F)CC1` [Example 366, 2-(6-bromo-1-oxospiro[3H-isoquinoline-4,1′-cyclopropane]-2-yl)-N-[1-(3,3,3-trifluoropropyl)piperidin-4-yl]acetamide]: the half-maximal inhibitory concentration (IC50) stood at 19 µM.

Consider `O=C(CN1CC2(CC2)c2cc(Br)ccc2C1=O)NC1CCN(CC(F)F)CC1` [Example 367, 2-(6-bromo-1-oxospiro[3H-isoquinoline-4,1′-cyclopropane]-2-yl)-N-[1-(2,2-difluoroethyl)piperidin-4-yl]acetamide], for which the IC50 came to 11.7 µM.

As for `Cc1cc(NC(=O)CN2CC3(CC3)c3cc(Br)ccc3C2=O)nc2ccnn12` [Example 368, 2-(6-bromo-1-oxospiro[3H-isoquinoline-4,1′-cyclopropane]-2-yl)-N-(7-methylpyrazolo[1,5-a]pyrimidin-5-yl)acetamide], the IC50 was determined as 1.6 µM.

As for `O=C(CN1CC2(CC2)c2cc(Br)ccc2C1=O)NC1CCN(c2cccnc2)CC1` [Example 369, 2-(6-bromo-1-oxospiro[3H-isoquinoline-4,1′-cyclopropane]-2-yl)-N-(1-pyridin-3-ylpiperidin-4-yl)acetamide], the IC50 came to 6.51 µM.

Regarding `CN1CCC(NC(=O)CN2CC3(CC3)c3cc(Br)ccc3C2=O)CC12CC2` (stereo not shown) [Example 370, 2-(6-bromo-1-oxospiro[3H-isoquinoline-4,1′-cyclopropane]-2-yl)-N-(4-methyl-4-azaspiro[2.5]octan-7-yl)acetamide], the 50% inhibitory concentration (IC50) amounted to 5.97 µM.

Take `Cn1cnc(NC(=O)CN2CC3(CC3)c3cc(Br)ccc3C2=O)n1` [Example 371, 2-(6-bromo-1-oxospiro[3H-isoquinoline-4,1′-cyclopropane]-2-yl)-N-(1-methyl-1,2,4-triazol-3-yl)acetamide]: the IC50 was 1.46 µM.

`O=C(CN1CC2(CC2)c2cc(Br)ccc2C1=O)Nc1nc2n(n1)CCCC2` [Example 373, 2-(6-bromo-1-oxospiro[3H-isoquinoline-4,1′-cyclopropane]-2-yl)-N-(5,6,7,8-tetrahydro-[1,2,4]triazolo[1,5-a]pyridin-2-yl)acetamide]: the IC50 worked out at 1.59 µM.

For `O=C(CN1CC2(CC2)c2cc(Br)ccc2C1=O)Nc1ccn2ccnc2n1` [Example 374, 2-(6-bromo-1-oxospiro[3H-isoquinoline-4,1′-cyclopropane]-2-yl)-N-imidazo[1,2-a]pyrimidin-7-ylacetamide], the IC50 is 9.45 µM.

In the case of `O=C(CN1CC2(CC2)c2cc(Br)ccc2C1=O)NC1CCN(CC(F)(F)F)CC1` [Example 375, 2-(6-bromo-1-oxospiro[3H-isoquinoline-4,1′-cyclopropane]-2-yl)-N-[1-(2,2,2-trifluoroethyl)piperidin-4-yl]acetamide], the IC50 was determined as 11.1 µM.
